These are literature values, as cited in patent publication US7208487B2, “Compounds, compositions and methods” (Cytokinetics, Incorporated, priority 2002, dated 2007).

The subject of this data set is A549 cells.

Turning to `O=c1[nH]cc(F)c(=O)[nH]1` [5-fluorouracil], the 50% growth inhibitory concentration (GI50) (usually the concentration at which growth is held to half of that of the control) is 1 µM.
Consider `COc1cccc2c1C(=O)c1c(O)c3c(c(O)c1C2=O)C[C@@](O)(C(=O)CO)C[C@@H]3O[C@H]1C[C@H](N)[C@H](O)[C@H](C)O1` [doxorubicin], for which the GI50 is 0.063 µM.
Consider `NC(=O)NO` [hydroxyurea], for which the GI50 is 500 µM.
As for `CC(=O)O[C@H]1C(=O)[C@@]2(C)[C@H]([C@H](OC(=O)c3ccccc3)[C@]3(O)C[C@H](OC(=O)[C@H](O)[C@@H](NC(=O)c4ccccc4)c4ccccc4)C(C)=C1C3(C)C)[C@]1(OC(C)=O)CO[C@@H]1C[C@@H]2O` [paclitaxel], the concentration for 50% growth inhibition (GI50) was 0.004 µM.
